What was measured:
Type in all cases: cell-based
[1] = system: Trichophyton mentagrophytes ATCC-MYA-4439; experiment: in vitro anti-fungal test, 80% MIC (CLSI M-38P)
Source text: (§1) 1. The present disclosure conducts an in vitro anti-fungal test on the composition extracts in Examples 1 to 3, and the single radix sophorae flavescentis alkaloid and single peristrophe japonica extracts prepared in Example 3. The cell strains used in the test are all ATCC standard strains provided by the Fungi Center of the Medical Microbial (Virus) Species Collection and Management Center of the Ministry of Health, which includes as follows, Aspergillus: Aspergillus fumigatus Strain Number: CMCCC(F) A1g (ATCC-MYA-3626); Candida: Candida albicans Strain Number: CMCCC (F) C.1L (ATCC90028); Trichophyton: Trichophyton rubrum Strain Number: CMCCC(F)T.1h (ATCC-MYA-4438); Trichophyton mentagrophytes Strain Number: CMCCC(F)T.5e (ATCC-MYA-4439).
(§2) 2. The specific experimental methods are carried out with reference to the standard methods of yeast M-27A3 and filamentous fungi M-38P issued by the Clinical and Laboratory Standards Institute (US, CLSI) of the United States.
(§3) Before the experiment, after activating the experimental bacteria, yeast are cultured on Sabouraud Dextrose Agar(SDA) medium at 30° C. for 48 hours; filamentous fungi are cultured on potato dextrose agar (PDA) medium at 26° C. for 7 days to 10 days. A suspension is prepared with sterile normal saline, the suspension is counted by a hemocytometer, and is dilute with RMPI-1640 liquid medium containing 2% glucose in multiple amounts to Candida albicans 1.0×10^3 cfu/mL; the other three filamentous fungi are prepared into 2.5×10^4 cfu/mL. 0.1 mL of bacterial solutions are taken respectively, the culture medium containing the compositions prepared in Examples 1 to 3 and the same doses of the radix sophorae flavescentis alkaloids and the peristrophe japonica extracts prepared in Example 3 are added into each well, wherein the well 11 is a vehicle control, the well 12 is a medium control. 0.1 mL of the diluted solvent is added into the vehicle control well, and 0.1 mL of the distilled water is added into the control well. […]

[2] = system: Trichophyton rubrum ATCC-MYA-4438; experiment: in vitro anti-fungal test, 80% MIC (CLSI M-38P)
Source text: as §1, §2, §3

[3] = system: Aspergillus fumigatus ATCC-MYA-3626; experiment: in vitro anti-fungal test, 80% MIC (CLSI M-38P)
Source text: as §1, §2, §3

[4] = system: Candida albicans ATCC90028; experiment: in vitro anti-fungal test, 80% MIC (CLSI M-27A3)
Source text: as §1
2. […]
Before the experiment, after activating the experimental bacteria, yeast are cultured on Sabouraud Dextrose Agar(SDA) medium at 30° C. for 48 hours; filamentous fungi are cultured on potato dextrose agar (PDA) medium at 26° C. for 7 days to 10 days. A suspension is prepared with sterile normal saline, the suspension is counted by a hemocytometer, and is dilute with RMPI-1640 liquid medium containing 2% glucose in multiple amounts to Candida albicans 1.0×10^3 cfu/mL; the other three filamentous fungi are prepared into 2.5×10^4 cfu/mL. […]

In the case of `CCC(C)n1ncn(-c2ccc(N3CCN(c4ccc(OCC5COC(Cn6cncn6)(c6ccc(Cl)cc6Cl)O5)cc4)CC3)cc2)c1=O` (stereo not shown) [Itraconazole], the “80% MIC” value [1] is reported as 5.8, the “80% MIC” value [2] is reported as 5.6 and the “80% MIC” value [3] is reported as 4.2. For the same compound, the “80% MIC” value [4] was 3.8.
